Source: PMC10620772, “Design, synthesis, and biological evaluation of new pyrimidine-5-carbonitrile derivatives as novel anti-cancer, dual EGFR^WT/COX-2 inhibitors with docking studies” (RSC Advances, 2023)

Columns and labels:
Assay in all cases: NCI60 antitumor screening
Assay type in all cases: cell-based, human
IGROV1 = conditions: Homo sapiens, IGROV-1; 10 μM single dose; IGROV1 (ovarian cancer); read-out: growth inhibition percent (GI%)
MDA-MB-468 = conditions: Homo sapiens; 10 μM single dose; MDA-MB-468 (breast cancer); read-out: growth inhibition percent (GI%)
HCT-15 = conditions: Homo sapiens; 10 μM single dose; HCT-15 (colon cancer); read-out: growth inhibition percent (GI%)
T-47D = conditions: Homo sapiens, T47D; 10 μM single dose; T-47D (breast cancer); read-out: growth inhibition percent (GI%)
UO-31 = conditions: Homo sapiens; 10 μM single dose; UO-31 (renal cancer); read-out: growth inhibition percent (GI%)
RPMI-8226 = conditions: Homo sapiens; 10 μM single dose; RPMI-8226 (leukaemia); read-out: growth inhibition percent (GI%)
DU-145 = conditions: Homo sapiens, DU-145; read-out: growth inhibition percent (GI%)
HOP-92 = conditions: Homo sapiens; 10 μM single dose; HOP-92 (non-small cell lung cancer); read-out: growth inhibition percent (GI%)
RXF 393 = conditions: for inhibition at 10 µM: Homo sapiens, 10 μM single dose, RXF 393 (renal cancer), read-out: growth inhibition percent (GI%)
HT29 = conditions: Homo sapiens, HT-29; 10 μM single dose; HT29 (colon cancer); read-out: growth inhibition percent (GI%)
UACC-257 = conditions: Homo sapiens; 10 μM single dose; UACC-257 (melanoma); read-out: growth inhibition percent (GI%)
TK-10 = conditions: Homo sapiens; 10 μM single dose; TK-10 (renal cancer); read-out: growth inhibition percent (GI%)
A549/ATCC = conditions: Homo sapiens; 10 μM single dose; A549/ATCC (non-small cell lung cancer); read-out: growth inhibition percent (GI%)
NCI-H322M = conditions: Homo sapiens; 10 μM single dose; NCI-H322M (non-small cell lung cancer); read-out: growth inhibition percent (GI%)
HCT-116 = conditions: Homo sapiens; 10 μM single dose; HCT-116 (colon cancer); read-out: growth inhibition percent (GI%)
SK-MEL-28 = conditions: Homo sapiens; 10 μM single dose; SK-MEL-28 (melanoma); read-out: growth inhibition percent (GI%)
K-562 = conditions: for inhibition at 10 µM: Homo sapiens, 10 μM single dose, (leukaemia), read-out: growth inhibition percent (GI%)
HL-60(TB) = conditions: Homo sapiens; 10 μM single dose; HL-60(TB) (leukaemia); read-out: growth inhibition percent (GI%)
OVCAR-8 = conditions: Homo sapiens; 10 μM single dose; OVCAR-8 (ovarian cancer); read-out: growth inhibition percent (GI%)
A498 = conditions: Homo sapiens; 10 μM single dose; A498 (renal cancer); read-out: growth inhibition percent (GI%)
NCI-H226 = conditions: for inhibition at 10 µM: Homo sapiens, 10 μM single dose, NCI-H226 (non-small cell lung cancer), read-out: growth inhibition percent (GI%)
NCI-H522 = conditions: Homo sapiens; 10 μM single dose; NCI-H522 (non-small cell lung cancer); read-out: growth inhibition percent (GI%)
786–0 = conditions: for inhibition at 10 µM: Homo sapiens, 10 μM single dose, 786–0 (renal cancer), read-out: growth inhibition percent (GI%)
M14 = conditions: Homo sapiens; 10 μM single dose; M14 (melanoma); read-out: growth inhibition percent (GI%)
SN12C = conditions: Homo sapiens; 10 μM single dose; SN12C (renal cancer); read-out: growth inhibition percent (GI%)
PC-3 = conditions: Homo sapiens; 10 μM single dose; PC-3 (prostate cancer); read-out: growth inhibition percent (GI%)
SW-620 = conditions: Homo sapiens; 10 μM single dose; SW-620 (colon cancer); read-out: growth inhibition percent (GI%)
CCRF-CEM = conditions: Homo sapiens; 10 μM single dose; CCRF-CEM (leukaemia); read-out: growth inhibition percent (GI%)
NCI-H23 = conditions: Homo sapiens; 10 μM single dose; NCI-H23 (non-small cell lung cancer); read-out: growth inhibition percent (GI%)
SF-539 = conditions: for inhibition at 10 µM: Homo sapiens, 10 μM single dose, SF-539 (CNS cancer), read-out: growth inhibition percent (GI%)
MALME-3M = conditions: Homo sapiens; 10 μM single dose; MALME-3M (melanoma); read-out: growth inhibition percent (GI%)
OVCAR-3 = conditions: Homo sapiens; 10 μM single dose; OVCAR-3 (ovarian cancer); read-out: growth inhibition percent (GI%)
HOP-62 = conditions: for inhibition at 10 µM: Homo sapiens, 10 μM single dose, HOP-62 (non-small cell lung cancer), read-out: growth inhibition percent (GI%)
LOX IMVI = conditions: Homo sapiens; 10 μM single dose; LOX IMVI (melanoma); read-out: growth inhibition percent (GI%)
CAKI-1 = conditions: Homo sapiens; 10 μM single dose; CAKI-1 (renal cancer); read-out: growth inhibition percent (GI%)
MDA-MB-435 = conditions: Homo sapiens; 10 μM single dose; MDA-MB-435 (melanoma); read-out: growth inhibition percent (GI%)
SK-MEL-5 = conditions: Homo sapiens; 10 μM single dose; SK-MEL-5 (melanoma); read-out: growth inhibition percent (GI%)
UACC-62 = conditions: Homo sapiens; 10 μM single dose; UACC-62 (melanoma); read-out: growth inhibition percent (GI%)

CN1CCN(c2nc(SCc3ccc(F)cc3)nc(-c3ccc(F)cc3)c2C#N)CC1 [4j, 2-((4-Fluorobenzyl)thio)-4-(4-fluorophenyl)-6-(4-methylpiperazin-1-yl)pyrimidine-5-carbonitrile]
inhibition at 10 µM (IGROV1): 16.9% | inhibition at 10 µM (MDA-MB-468): 23.6% | inhibition at 10 µM (HCT-15): < 10% | inhibition at 10 µM (T-47D): 18.3% | inhibition at 10 µM (UO-31): 30.1% | inhibition at 10 µM (RPMI-8226): 15% | inhibition at 10 µM (DU-145): < 10% | inhibition at 10 µM (HOP-92): 66.2% | GI% (RXF 393; 10 μM one-dose, Table 1): 80.61% | inhibition at 10 µM (RXF 393): 80.6% | inhibition at 10 µM (HT29): < 10% | inhibition at 10 µM (UACC-257): < 10% | inhibition at 10 µM (TK-10): 15% | inhibition at 10 µM (A549/ATCC): 27.7% | inhibition at 10 µM (NCI-H322M): 24.6% | inhibition at 10 µM (HCT-116): 25.3% | inhibition at 10 µM (SK-MEL-28): 16.2% | GI% (K-562; 10 μM one-dose, Table 1): — (GI value > 70%) | inhibition at 10 µM (K-562): 18.5% | inhibition at 10 µM (HL-60(TB)): < 10% | inhibition at 10 µM (OVCAR-8): 32% | inhibition at 10 µM (A498): < 10% | GI% (NCI-H226; 10 μM one-dose, Table 1): — (GI value > 70%) | inhibition at 10 µM (NCI-H226): 37.8% | inhibition at 10 µM (NCI-H522): 23.6% | GI% (786–0; 10 μM one-dose, Table 1): — (GI value > 70%) | inhibition at 10 µM (786–0): 67.1% | inhibition at 10 µM (M14): 10.4% | inhibition at 10 µM (SN12C): 20.5% | inhibition at 10 µM (PC-3): 32.3% | inhibition at 10 µM (SW-620): < 10% | inhibition at 10 µM (CCRF-CEM): < 10% | inhibition at 10 µM (NCI-H23): 22.2% | GI% (SF-539; 10 μM one-dose, Table 1): — (GI value > 70%) | inhibition at 10 µM (SF-539): 54.8% | inhibition at 10 µM (MALME-3M): 39.5% | inhibition at 10 µM (OVCAR-3): 16.1% | GI% (HOP-62; 10 μM one-dose, Table 1): — (GI value > 70%) | inhibition at 10 µM (HOP-62): 64.4% | inhibition at 10 µM (LOX IMVI): 22.9% | inhibition at 10 µM (CAKI-1): 57.5% | inhibition at 10 µM (MDA-MB-435): < 10% | inhibition at 10 µM (SK-MEL-5): < 10% | inhibition at 10 µM (UACC-62): 22.5%

N#Cc1c(-c2ccc(F)cc2)nc(SCc2ccc(F)cc2)nc1N1CCN(c2ccccc2)CC1 [4n, 2-((4-Fluorobenzyl)thio)-4-(4-fluorophenyl)-6-(4-phenylpiperazin-1-yl)pyrimidine-5-carbonitrile]
inhibition at 10 µM (IGROV1): < 10% | inhibition at 10 µM (MDA-MB-468): < 10% | inhibition at 10 µM (HCT-15): < 10% | inhibition at 10 µM (T-47D): 24.3% | inhibition at 10 µM (UO-31): < 10% | inhibition at 10 µM (RPMI-8226): 22.3% | inhibition at 10 µM (DU-145): < 10% | inhibition at 10 µM (HOP-92): < 10% | inhibition at 10 µM (RXF 393): < 10% | inhibition at 10 µM (HT29): < 10% | inhibition at 10 µM (UACC-257): 12.9% | inhibition at 10 µM (TK-10): < 10% | inhibition at 10 µM (A549/ATCC): < 10% | inhibition at 10 µM (NCI-H322M): < 10% | inhibition at 10 µM (HCT-116): 11.8% | inhibition at 10 µM (SK-MEL-28): < 10% | inhibition at 10 µM (K-562): 12.5% | inhibition at 10 µM (HL-60(TB)): < 10% | inhibition at 10 µM (OVCAR-8): < 10% | inhibition at 10 µM (A498): < 10% | inhibition at 10 µM (NCI-H226): < 10% | inhibition at 10 µM (NCI-H522): 10.3% | inhibition at 10 µM (786–0): < 10% | inhibition at 10 µM (M14): 10.1% | inhibition at 10 µM (SN12C): < 10% | inhibition at 10 µM (PC-3): 25.2% | inhibition at 10 µM (SW-620): < 10% | inhibition at 10 µM (CCRF-CEM): 16.6% | inhibition at 10 µM (NCI-H23): < 10% | inhibition at 10 µM (SF-539): < 10% | inhibition at 10 µM (MALME-3M): < 10% | inhibition at 10 µM (OVCAR-3): < 10% | inhibition at 10 µM (HOP-62): < 10% | inhibition at 10 µM (LOX IMVI): < 10% | inhibition at 10 µM (CAKI-1): 16.3% | inhibition at 10 µM (MDA-MB-435): < 10% | inhibition at 10 µM (SK-MEL-5): 12.4% | inhibition at 10 µM (UACC-62): 25.8%

Cc1ccc(CSc2nc(-c3ccc(F)cc3)c(C#N)c(N3CCN(C)CC3)n2)cc1 [4l, 4-(4-Fluorophenyl)-2-((4-methylbenzyl)thio)-6-(4-methylpiperazin-1-yl) pyrimidine-5-carbonitrile]
inhibition at 10 µM (IGROV1): < 10% | inhibition at 10 µM (MDA-MB-468): < 10% | inhibition at 10 µM (HCT-15): 10.3% | inhibition at 10 µM (T-47D): 18.1% | inhibition at 10 µM (UO-31): 17.6% | inhibition at 10 µM (RPMI-8226): 15.5% | inhibition at 10 µM (DU-145): < 10% | inhibition at 10 µM (HOP-92): 39.3% | inhibition at 10 µM (RXF 393): 42.4% | inhibition at 10 µM (HT29): 10.6% | inhibition at 10 µM (UACC-257): < 10% | inhibition at 10 µM (TK-10): < 10% | inhibition at 10 µM (A549/ATCC): 13.1% | inhibition at 10 µM (NCI-H322M): 18% | inhibition at 10 µM (HCT-116): 13.1% | inhibition at 10 µM (SK-MEL-28): < 10% | inhibition at 10 µM (K-562): 28.6% | inhibition at 10 µM (HL-60(TB)): 12.2% | inhibition at 10 µM (OVCAR-8): 11.9% | inhibition at 10 µM (A498): < 10% | inhibition at 10 µM (NCI-H226): < 10% | inhibition at 10 µM (NCI-H522): 33.4% | inhibition at 10 µM (786–0): 44.2% | inhibition at 10 µM (M14): < 10% | inhibition at 10 µM (SN12C): 11.9% | inhibition at 10 µM (PC-3): 24.2% | inhibition at 10 µM (SW-620): < 10% | inhibition at 10 µM (CCRF-CEM): 15.2% | inhibition at 10 µM (NCI-H23): < 10% | inhibition at 10 µM (SF-539): 31.8% | inhibition at 10 µM (MALME-3M): 11.7% | inhibition at 10 µM (OVCAR-3): < 10% | inhibition at 10 µM (HOP-62): 12.8% | inhibition at 10 µM (LOX IMVI): 12.8% | inhibition at 10 µM (CAKI-1): 36.9% | inhibition at 10 µM (MDA-MB-435): < 10% | inhibition at 10 µM (SK-MEL-5): < 10% | inhibition at 10 µM (UACC-62): 13%
